Data taken from publication PMC12136037, “Type II kinase inhibitors that target Parkinson’s disease–associated LRRK2” (Science Advances, 2025).
“And” between values parts separate entries of the source, which are not always exact repeats. Equal entries are not always repeated.

Legend:
[1] = biological target: T1, ~100 representative kinases (Homo sapiens, UniProt P54762); assay: DSF 100 kinase selectivity screen; assay type: binding; settings: Protein EPHB1; average of three replicates;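 further: compound tested at 20 µM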
T1 construct: Recombinant protein kinase domains with a concentration of 2 μM
T1 sequence (P54762 18-984): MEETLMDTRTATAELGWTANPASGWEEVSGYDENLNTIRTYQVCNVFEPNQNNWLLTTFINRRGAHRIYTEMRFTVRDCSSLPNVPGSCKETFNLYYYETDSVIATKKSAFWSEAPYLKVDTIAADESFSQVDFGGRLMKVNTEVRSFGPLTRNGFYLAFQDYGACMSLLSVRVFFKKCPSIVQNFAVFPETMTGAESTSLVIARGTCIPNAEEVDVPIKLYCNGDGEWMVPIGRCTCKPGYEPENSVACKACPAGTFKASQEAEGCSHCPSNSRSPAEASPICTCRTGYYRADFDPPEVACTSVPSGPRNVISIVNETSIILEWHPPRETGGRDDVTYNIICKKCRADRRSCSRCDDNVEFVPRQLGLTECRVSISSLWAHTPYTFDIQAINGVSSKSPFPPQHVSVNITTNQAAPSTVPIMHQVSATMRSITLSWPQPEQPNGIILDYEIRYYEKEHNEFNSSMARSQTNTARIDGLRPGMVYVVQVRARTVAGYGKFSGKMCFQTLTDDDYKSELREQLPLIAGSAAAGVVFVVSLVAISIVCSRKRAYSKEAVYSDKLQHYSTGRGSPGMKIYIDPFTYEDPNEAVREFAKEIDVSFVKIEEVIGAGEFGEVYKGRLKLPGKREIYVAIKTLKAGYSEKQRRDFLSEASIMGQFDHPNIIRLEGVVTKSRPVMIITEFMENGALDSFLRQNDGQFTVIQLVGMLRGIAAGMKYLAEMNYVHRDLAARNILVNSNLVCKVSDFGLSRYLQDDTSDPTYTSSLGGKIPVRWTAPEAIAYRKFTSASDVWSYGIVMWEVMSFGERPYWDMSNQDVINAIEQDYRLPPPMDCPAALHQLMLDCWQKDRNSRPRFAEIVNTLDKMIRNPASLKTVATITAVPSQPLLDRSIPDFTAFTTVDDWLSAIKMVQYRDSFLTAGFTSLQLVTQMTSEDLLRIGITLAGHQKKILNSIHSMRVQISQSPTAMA
Summary of the method: (§1)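 Each kinase domain, at 2 μM, is mixed with 20 μM test compound and SYPRO Orange in Hepes (20 mM, pH 7.5) with 500 mM NaCl. Temperature is then raised at 3°C/min and fluorescence-monitored unfolding yields the melting temperature change, ΔTm in degrees Celsius.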

[2] = biological target: T2, ~100 representative kinases (Homo sapiens, UniProt Q13557); assay: DSF 100 kinase selectivity screen; assay type: binding; settings: Protein CAMK2D; average of three replicates;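 further: compound tested at 20 µM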
T2 construct: Recombinant protein kinase domains with a concentration of 2 μM
Summary of the method: as §1

LRRK2^RCKW = biological target: T3, LRRK2^RCKW (Homo sapiens, UniProt Q5S007); assay: Biochemical LRRK2 activity assay (PhosphoSense, AssayQuant SOX peptide AQT0615); settings: for IC50: LRRK2^RCKW kinase activity, in vitro; for normalized response (LRRK2 activity): normalized to 0% (no kinase) and 100% (no inhibitor) control, two singlicate columns per compound
T3 construct: LRRK2 R1327 to E2527; His6-Z-tag (TEV cleavable) (N, cleaved yes); host or cells: Sf9 insect cells (baculovirus)
T3 sequence (Q5S007 1327-2527): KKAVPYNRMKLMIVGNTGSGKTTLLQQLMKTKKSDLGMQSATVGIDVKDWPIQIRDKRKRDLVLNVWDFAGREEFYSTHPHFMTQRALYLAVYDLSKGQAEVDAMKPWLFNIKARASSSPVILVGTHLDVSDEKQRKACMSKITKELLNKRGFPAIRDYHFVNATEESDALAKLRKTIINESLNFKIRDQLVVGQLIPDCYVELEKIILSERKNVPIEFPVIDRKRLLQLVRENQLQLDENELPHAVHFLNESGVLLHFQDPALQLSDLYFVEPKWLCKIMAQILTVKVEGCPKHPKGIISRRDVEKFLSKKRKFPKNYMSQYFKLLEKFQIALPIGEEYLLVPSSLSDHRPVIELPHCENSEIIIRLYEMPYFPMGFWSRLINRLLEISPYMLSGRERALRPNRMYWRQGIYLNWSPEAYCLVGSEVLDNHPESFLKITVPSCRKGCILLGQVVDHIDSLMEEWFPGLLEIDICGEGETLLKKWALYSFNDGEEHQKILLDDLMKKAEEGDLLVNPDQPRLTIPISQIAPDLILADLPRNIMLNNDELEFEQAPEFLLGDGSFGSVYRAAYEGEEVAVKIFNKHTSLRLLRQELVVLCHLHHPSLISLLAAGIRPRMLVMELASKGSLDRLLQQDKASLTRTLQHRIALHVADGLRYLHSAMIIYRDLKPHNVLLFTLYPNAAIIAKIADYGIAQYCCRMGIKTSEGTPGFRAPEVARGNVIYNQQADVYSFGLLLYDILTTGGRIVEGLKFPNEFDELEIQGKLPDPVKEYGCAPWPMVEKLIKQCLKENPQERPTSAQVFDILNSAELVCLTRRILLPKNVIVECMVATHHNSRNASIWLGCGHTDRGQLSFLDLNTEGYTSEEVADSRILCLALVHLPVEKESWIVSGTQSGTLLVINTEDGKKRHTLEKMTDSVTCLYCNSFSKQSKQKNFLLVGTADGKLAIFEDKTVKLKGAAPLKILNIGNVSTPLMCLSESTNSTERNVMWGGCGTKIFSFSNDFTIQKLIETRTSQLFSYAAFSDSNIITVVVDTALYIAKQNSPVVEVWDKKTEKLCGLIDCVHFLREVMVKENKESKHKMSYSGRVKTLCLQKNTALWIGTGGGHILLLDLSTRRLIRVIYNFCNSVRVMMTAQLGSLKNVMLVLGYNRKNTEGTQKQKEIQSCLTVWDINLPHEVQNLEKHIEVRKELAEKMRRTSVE
Summary of the method: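 Controls lacked protein and compound (0%) or compound only (100%). IC50 derived by nonlinear regression of normalized response versus log[inhibitor].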

T2 sequence (Q13557 whole entry, the tested form may be a part): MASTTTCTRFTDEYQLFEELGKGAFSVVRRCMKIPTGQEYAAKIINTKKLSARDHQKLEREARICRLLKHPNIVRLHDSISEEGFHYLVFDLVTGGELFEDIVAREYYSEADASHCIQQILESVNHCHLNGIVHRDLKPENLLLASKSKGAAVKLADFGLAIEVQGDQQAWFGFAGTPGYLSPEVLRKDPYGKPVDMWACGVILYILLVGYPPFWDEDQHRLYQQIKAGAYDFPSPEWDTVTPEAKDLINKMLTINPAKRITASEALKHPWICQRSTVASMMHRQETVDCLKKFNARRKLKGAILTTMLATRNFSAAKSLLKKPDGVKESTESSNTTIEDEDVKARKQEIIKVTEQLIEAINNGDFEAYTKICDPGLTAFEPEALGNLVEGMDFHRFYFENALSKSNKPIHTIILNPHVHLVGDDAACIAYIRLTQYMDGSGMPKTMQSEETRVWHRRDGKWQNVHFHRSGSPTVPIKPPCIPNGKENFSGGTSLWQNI

| Structure (SMILES) | dTm [1] | dTm [2] | IC50 (LRRK2^RCKW) | normalized response (LRRK2 activity) (LRRK2^RCKW; log[inhibitor(mol)] -5.12494) | normalized response (LRRK2 activity) (LRRK2^RCKW; log[inhibitor(mol)] -5.60206) | normalized response (LRRK2 activity) (LRRK2^RCKW; log[inhibitor(mol)] -6.30103) | normalized response (LRRK2 activity) (LRRK2^RCKW; log[inhibitor(mol)] -6.90309) | normalized response (LRRK2 activity) (LRRK2^RCKW; log[inhibitor(mol)] -7.30103) | normalized response (LRRK2 activity) (LRRK2^RCKW; log[inhibitor(mol)] -7.60206) | normalized response (LRRK2 activity) (LRRK2^RCKW; log[inhibitor(mol)] -8.09691) | normalized response (LRRK2 activity) (LRRK2^RCKW; log[inhibitor(mol)] -8.61979) | normalized response (LRRK2 activity) (LRRK2^RCKW; log[inhibitor(mol)] -9.09691) | normalized response (LRRK2 activity) (LRRK2^RCKW; log[inhibitor(mol)] -9.39794) | normalized response (LRRK2 activity) (LRRK2^RCKW; log[inhibitor(mol)] -4.82391) |
| --- | --- | --- | --- | --- | --- | --- | --- | --- | --- | --- | --- | --- | --- | --- |
| CC(=O)N1CCN(c2nc(Cl)nc3[nH]cc(-c4cccc(NC(=O)Nc5cc(C(C)(C)C)nn5-c5ccc(C)cc5)c4)c23)CC1 [Compound 31] | 0.39 K | -0.29 K | 82.4 ± 19 nM | -8.142% and -8.098% | -6.069% and -3.667% | 1.516% and 5.662% | 27.0499% and 37.6124% | 59.8343% and 70.8356% | 80.8168% and 85.4399% | 99.1997% and 109.801% | 111.451% and 122.71% | 117.928% and 123.215% | 115.57% and 119.935% | – |
| CCSc1nc(NC)c2c(-c3cccc(NC(=O)Nc4cc(C(C)(C)C)nn4-c4ccc(C)cc4)c3)c[nH]c2n1 [Compound 32] | 0.21 K | 0.32 K | 296 ± 39 nM | -7.459% and -2.016% | 19.5756% and 16.293% | 31.5753% and 35.852% | 72.0233% and 73.3531% | 83.8241% and 86.8594% | 89.687% and 98.7972% | 90.4381% and 87.8004% | 96.4865% and 91.0964% | 94.4983% and 98.9209% | 96.9901% and 60.5361% | – |
| COc1cc(C(=O)N2CCOCC2)c(F)cc1Nc1nc(N(C)C)c2c(Cl)c[nH]c2n1 [Compound 36] | -0.27 K | 3.01 K | 4.96 ± 0.11 nM | -4.747% and -10.7141% | -11.8877% and -7.237% | -22.7354% and -19.8398% | -16.5877% and -9.211% | -3.623% and 0.9398% | 12.0233% and 5.13% | 39.1206% and 42.4988% | 81.2335% and 75.689% | 74.4661% and 78.5518% | 100.642% and 97.3515% | – |
| COc1cc(S(C)(=O)=O)ccc1Nc1nc(N(C)C)c2c(Cl)c[nH]c2n1 [Compound 37] | -0.51 K | 0.41 K | 7.21 ± 2.1 nM | 2.952% and 3.194% | -7.27% and -5.12% | -12.6171% and -9.349% | -7.193% and -5.751% | 5.9468% and 5.579% | 17.6994% and 24.1378% | 34.6729% and 53.1381% | 84.0195% and 83.6411% | 89.904% and 89.2624% | 99.9785% and 100.571% | 24.6753% and 13.9482% |
| COc1cc2c(Oc3ccc(NC(=O)C4(C(=O)Nc5ccc(F)cc5)CC4)cc3F)ccnc2cc1OCCCN1CCOCC1 [Foretinib, reference compound] | 12.70 K | 0.34 K | – | -8.307% and -10.693% | -1.8523% and 5.65% | 28.3235% and 31.8978% | 69.5315% and 73.0571% | 85.8697% and 90.8136% | 93.5528% and 93.9107% | 88.4499% and 91.6177% | 92.1788% and 92.8283% | 95.8547% and 84.8889% | 98.1654% and 60.9912% | – |
| Cc1ccc(C(=O)Nc2ccc(CN3CCN(C)CC3)c(C(F)(F)F)c2)cc1C#Cc1cnc2[nH]ncc2c1 [GZD-824, reference compound] | 14.98 K | -0.21 K | – | 2.902% and -0.761% | – | -12.6856% and -11.6517% | -14.8328% and -12.1996% | -10.7195% and -10.9051% | -2.449% and -0.1425% | 77.0511% and 75.7389% | 100.887% and 96.9327% | 102.124% and 93.9328% | 100.847% and 103.781% | 37.9506% and 22.443% |
| CNC(=O)c1cc(Oc2ccc(NC(=O)Nc3cc(C(C)(C)C)nn3-c3ccc4ncccc4c3)c(F)c2)ccn1 [Rebastinib, reference compound] | 4.28 K | 2.16 K | – | -10.5496% and -14.6792% | -7.259% and -5.877% | 2.212% and 3.3144% | 28.2838% and 28.5032% | 54.9753% and 51.2954% | 71.3236% and 68.1209% | 89.2569% and 91.5273% | 98.1961% and 113.387% | 109.62% and 109.044% | 108.15% and 116.184% | – |
